In ChEMBL document CHEMBL4359907, “Scalable and cost-effective tosylation-mediated synthesis of antifungal and fungal diagnostic 6″-Modified amphiphilic kanamycins” (Eur J Med Chem, 2019):
Values after ≈ are worked out from the molar mass of the structure shown.

Columns and labels:
[1] = test system: Candida albicans; assay: Antifungal activity against Candida albicans B-311 incubated for 24 to 36 hrs by two fold dilution method; assay type: functional
[2] = test system: Candida parapsilosis; assay: Antifungal activity against azole-resistant Candida parapsilosis Cas08-0490 incubated for 24 to 36 hrs by two fold dilution method; assay type: functional; details: Lodderomyces parapsilosis
[3] = test system: Staphylococcus aureus; assay: Antibacterial activity against Staphylococcus aureus ATCC 25923 incubated for 18 hrs by two fold dilution method; assay type: functional; details: ATCC 25923, 18 h
[4] = test system: Candida tropicalis; assay: Antifungal activity against Candida tropicalis 95-41 incubated for 24 to 36 hrs by two fold dilution method; assay type: functional
[5] = test system: Escherichia coli; assay: Antibacterial activity against Escherichia coli ATCC 25922 incubated for 18 hrs by two fold dilution method; assay type: functional; details: ATCC 25922, 18 h
[6] = test system: Cryptococcus neoformans; assay: Antifungal activity against Cryptococcus neoformans H99 incubated for 24 to 36 hrs by two fold dilution method; assay type: functional
[7] = test system: Candida albicans; assay: Antifungal activity against azole-susceptible Candida albicans MYA2876 incubated for 24 to 36 hrs by two fold dilution method; assay type: functional
[8] = test system: Candida albicans; assay: Antifungal activity against azole-resistant Candida albicans 64124 incubated for 24 to 36 hrs by two fold dilution method; assay type: functional
[9] = test system: HeLa; assay: Cytotoxicity against human HeLa cells assessed as reduction in cell viability incubated for 24 hrs by MTT assay; assay type: cell-based
[10] = test system: Fusarium graminearum; assay: Antifungal activity against Fusarium graminearum B4-5A incubated for 24 to 36 hrs by two fold dilution method; assay type: functional
[11] = test system: Cryptococcus neoformans; assay: Antifungal activity against Cryptococcus neoformans VR-54 incubated for 24 to 36 hrs by two fold dilution method; assay type: functional
[12] = test system: Staphylococcus aureus; assay: Antibacterial activity against methicillin-resistant Staphylococcus aureus ATCC 33591 incubated for 18 hrs by two fold dilution method; assay type: functional; details: ATCC 33591, 18 h
[13] = test system: Staphylococcus aureus; assay: Antibacterial activity against methicillin-resistant Staphylococcus aureus ATCC 43300 incubated for 18 hrs by two fold dilution method; assay type: functional; details: ATCC 43300, 18 h
[14] = test system: Diutina rugosa; assay: Antifungal activity against Candida rugosa 95-967 incubated for 24 to 36 hrs by two fold dilution method; assay type: functional
[15] = test system: Rhodotorula mucilaginosa; assay: Antifungal activity against Rhodotorula pilimanae ATCC 26423 incubated for 24 to 36 hrs by two fold dilution method; assay type: functional

| SMILES | MIC [1] [µg/mL] | MIC [2] [µg/mL] | MIC [3] [µg/mL] | MIC [4] [µg/mL] | MIC [5] [µg/mL] | MIC [6] [µg/mL] | MIC [7] [µg/mL] | MIC [8] [µg/mL] | IC50 [9] [µg/mL] | MIC [10] [µg/mL] | MIC [11] [µg/mL] | MIC [12] [µg/mL] | MIC [13] [µg/mL] | MIC [14] [µg/mL] | MIC [15] [µg/mL] |
| --- | --- | --- | --- | --- | --- | --- | --- | --- | --- | --- | --- | --- | --- | --- | --- |
| CCCCCCCCCCCCCCCCNC[C@H]1O[C@H](O[C@@H]2[C@@H](O)[C@H](O[C@H]3O[C@H](CN)[C@@H](O)[C@H](O)[C@H]3O)[C@@H](N)C[C@H]2N)[C@H](O)[C@@H](N)[C@@H]1O.Cl.Cl.Cl.Cl.Cl | 4 | 4 | 16 | 4 | 32 | 2 | 8 | 4 | 41.6 | 2 | 2 | 32 | 32 | 4 | 2 |
| CCCCCCCCNC[C@H]1O[C@H](O[C@@H]2[C@@H](O)[C@H](O[C@H]3O[C@H](CN)[C@@H](O)[C@H](O)[C@H]3O)[C@@H](N)C[C@H]2N)[C@H](O)[C@@H](N)[C@@H]1O.Cl.Cl.Cl.Cl.Cl | > 256 | > 256 | 128 | > 256 | 256 | 16 | > 256 | 256 | – | 32 | 16 | > 256 | 128 | > 256 | 16 |
| CCCCCCCCCCSC[C@H]1O[C@H](O[C@@H]2[C@@H](O)[C@H](O[C@H]3O[C@H](CN)[C@@H](O)[C@H](O)[C@H]3O)[C@@H](N)C[C@H]2N)[C@H](O)[C@@H](N)[C@@H]1O.Cl.Cl.Cl.Cl | 128 | 128 | 64 | 128 | 64 | 8 | 64 | 64 | – | 32 | 8 | 64 | 32 | 64 | 4 |
| CCCCCCSC[C@H]1O[C@H](O[C@@H]2[C@@H](O)[C@H](O[C@H]3O[C@H](CN)[C@@H](O)[C@H](O)[C@H]3O)[C@@H](N)C[C@H]2N)[C@H](O)[C@@H](N)[C@@H]1O.Cl.Cl.Cl.Cl | > 256 | > 256 | 256 | > 256 | 128 | 128 | > 256 | > 256 | – | 256 | 64 | > 256 | > 256 | > 256 | 32 |
| CCCCCCCCCCCCCCSC[C@H]1O[C@H](O[C@@H]2[C@@H](O)[C@H](O[C@H]3O[C@H](CN)[C@@H](O)[C@H](O)[C@H]3O)[C@@H](N)C[C@H]2N)[C@H](O)[C@@H](N)[C@@H]1O.Cl.Cl.Cl.Cl | 8 | 16 | 16 | 4 | 16 | 2 | 4 | 4 | 52.9 | 2 | 2 | 16 | 16 | 8 | 2 |
| CCCCCCCCS(=O)(=O)OC[C@H]1O[C@H](O[C@@H]2[C@@H](O)[C@H](O[C@H]3O[C@H](CN)[C@@H](O)[C@H](O)[C@H]3O)[C@@H](N)C[C@H]2N)[C@H](O)[C@@H](N)[C@@H]1O | 16 (≈ 24.2 µM) | 16 (≈ 24.2 µM) | – | 16 (≈ 24.2 µM) | – | 4 (≈ 6.05 µM) | 16 (≈ 24.2 µM) | 16 (≈ 24.2 µM) | – | 8 (≈ 12.1 µM) | 4 (≈ 6.05 µM) | – | – | 32 (≈ 48.4 µM) | 4 (≈ 6.05 µM) |
| CCCCCCCCCCCCCCNC[C@H]1O[C@H](O[C@@H]2[C@@H](O)[C@H](O[C@H]3O[C@H](CN)[C@@H](O)[C@H](O)[C@H]3O)[C@@H](N)C[C@H]2N)[C@H](O)[C@@H](N)[C@@H]1O.Cl.Cl.Cl.Cl.Cl | 8 | 4 | 16 | 4 | 32 | 2 | 8 | 4 | 60.8 | 2 | 2 | 16 | 16 | 4 | 2 |
| NC[C@H]1O[C@H](O[C@H]2[C@H](O)[C@@H](O[C@H]3O[C@H](CO)[C@@H](O)[C@H](N)[C@H]3O)[C@H](N)C[C@@H]2N)[C@H](O)[C@@H](O)[C@@H]1O [KANAMYCIN] | ≥ 256 | – | 4 (≈ 8.26 µM) | – | 4 (≈ 8.26 µM) | – | ≥ 256 | ≥ 256 | – | ≥ 256 | ≥ 256 | > 256 | > 256 | – | ≥ 256 |
| Cc1ccc(S(=O)(=O)OC[C@H]2O[C@H](O[C@@H]3[C@@H](O)[C@H](O[C@H]4O[C@H](CN)[C@@H](O)[C@H](O)[C@H]4O)[C@@H](N)C[C@H]3N)[C@H](O)[C@@H](N)[C@@H]2O)cc1.Cl.Cl.Cl.Cl | > 256 | > 256 | 32 | > 256 | 16 | > 256 | > 256 | > 256 | – | 128 | > 256 | > 256 | > 256 | > 256 | 128 |
| CCCCCCCCSC[C@H]1O[C@H](O[C@@H]2[C@@H](O)[C@H](O[C@H]3O[C@H](CN)[C@@H](O)[C@H](O)[C@H]3O)[C@@H](N)C[C@H]2N)[C@H](O)[C@@H](N)[C@@H]1O.Cl.Cl.Cl.Cl | > 256 | > 256 | 128 | > 256 | 128 | 128 | 256 | 128 | – | 128 | 64 | 256 | 256 | 256 | 32 |
| CCCCCCCCCCNC[C@H]1O[C@H](O[C@@H]2[C@@H](O)[C@H](O[C@H]3O[C@H](CN)[C@@H](O)[C@H](O)[C@H]3O)[C@@H](N)C[C@H]2N)[C@H](O)[C@@H](N)[C@@H]1O.Cl.Cl.Cl.Cl.Cl | 256 | 256 | 128 | > 256 | 64 | 8 | > 256 | 128 | – | 32 | 8 | 256 | 64 | 256 | 8 |
| CCCCCCNC[C@H]1O[C@H](O[C@@H]2[C@@H](O)[C@H](O[C@H]3O[C@H](CN)[C@@H](O)[C@H](O)[C@H]3O)[C@@H](N)C[C@H]2N)[C@H](O)[C@@H](N)[C@@H]1O.Cl.Cl.Cl.Cl.Cl | > 256 | > 256 | 64 | > 256 | 256 | 128 | > 256 | > 256 | – | 64 | 128 | > 256 | > 256 | > 256 | 128 |
